Measurements: publication PMC12435366, “Maleic anhydride derived diphosphines: adaptable chelators for receptor-targeted ^99mTc, ^64Cu and ^188Re radiotracers” (Chemical Science, 2025)

Legend:
[1] = tested on: PSMA-expressing DU145-PSMA+ prostate cancer cells; assay: In vitro uptake of 99mTc tracers in DU145-PSMA+ cells; assay type: cell-based; conditions: for uptake in DU145-PSMA+ cells (% added radioactivity): 50 kBq purified tracer, 5 × 10^5 cells seeded per well, 37 °C, 1 h incubation, mean ± SD, biological triplicate; for blocking of cell uptake by PSMA inhibitor PMPA: co-incubation with PMPA
Method: (§1) To compare the relative uptake and specificity of the new radiotracers for PSMA, [^99mTcO2(DP^Ph-PSMAt)2]^+, [^99mTcO2(DP^An-PSMAt)2]^+ and [^99mTcO2(DP^MEP-PSMAt)2]^+ (50 kBq) were purified from unreacted ^99mTc precursors and excess DP-PSMAt peptide, and each incubated with PSMA-expressing DU145-PSMA+ prostate cancer cells[33] or LNCaP prostate cancer cells (5 × 10^5 cells). After 1 h incubation, uptake of each radiotracer was quantified. […]
(§2) 4.9 99mTc uptake in DU145, DU145-PSMA+ and LNCaP cells
(§3) The following experiment was performed in biological triplicate.
(§4) A panel of cell lines were selected that either expressed GCP(II)/PSMA (DU145-PSMA+ (genetically modified to express PSMA),12 and LNCaP (CRL‐1740)), or had low GCP(II)/PSMA expression (DU145 (HTB-81)). All cell lines were cultured in RPMI 1640 medium (R0883, Sigma) containing 10% foetal bovine serum, 2 mM L-glutamine, and 100 U mL−1 penicillin and 100 µg mL−1 streptomycin. Cells were maintained at 37 °C and 5% CO 2. Cells were seeded in 6-well plates at a density of 5 × 10^5 cells per well […]
in 2 mL complete media to achieve 70–80% confluency the following day. Prior to treating cells, cell medium (1 mL/well) was replaced. Solutions containing either [99mTcO2(DPPh-PSMAt)2]+, [99mTcO2(DPAn-PSMAt)2]+ or [99mTcO2(DPMEP-PSMAt)2]+ (50 kBq in 10 μL of PBS, >95% radiochemical purity) were added to each well, and the cells incubated at 37 °C for 1 h. Uptake studies were also performed after a 2 min incubation with the PSMA inhibitor 2 -(phosphonomethyl)pentane -1,5-dioic acid (PMPA; 30 µL of 750 µM PMPA solution/well). After 60 min incubation, the supernatant was removed, and the cells were washed with PBS solution (2 × 1 mL). The cells were lysed with ice cold radioimmunoprecipitation assay buffer (RIPA buffer, 500 μL; 150 mM sodium chloride, 0.1% w/w sodium dodecyl sulfate (SDS), 0.5% w/w sodium deoxycholate (NaDOC), 1% w/w Triton-X) and samples were collected for radioactivity counting. Results are depicted as means ± SD of independent biological experiments (performed on different days with different radiotracer preparations). […]
Biodistribution studies using 99mTc radiotracers were performed once a tumour had reached 150– 300 mm3 in volume (2–7 weeks after injection).
SCID/beige mice bearing DU145-PSMA+ prostate cancer tumour xenografts
SPECT/CT scanning and biodistribution studies: The 99mTc radiotracers (3.9–4.5 MBq, 3 mice per group, containing DPAn-PSMAt = 3.0 µg or DPMEP-PSMAt = 3.5 µg) were administered via tail vein injection under isoflurane anaesthesia. Following this, SPECT/CT scanning was carried out in one of two methods outlined below, to maintain 2 h biodistribution timepoints : i. The mouse was positioned on a single heated bed in a nanoScan SPECT/CT 80W scanner (Mediso Ltd., Budapest, Hungary) calibrated for 99mTc. A helical CT scan was acquired (50 kV X-ray source, 170 ms exposure time in 360 projections over 3 min). At 15 min post -injection, whole body SPECT scans were acquired (1 × 15 min, 3 × 30 min, conducted sequentially) with a frame time of 13 s and 26 s (using a 4-head scanner with 4 × 9 [1.4 mm] pinhole collimators

[2] = tested on: LNCaP prostate cancer cells; assay: In vitro uptake of 99mTc tracers in LNCaP cells; assay type: cell-based; conditions: co-incubation with PMPA, 1 h
Method: as §1, §2, §3, §4
in 2 mL complete media to achieve 70–80% confluency the following day. […] The cells were lysed with ice cold radioimmunoprecipitation assay buffer (RIPA buffer, 500 μL; 150 mM sodium chloride, 0.1% w/w sodium dodecyl sulfate (SDS), 0.5% w/w sodium deoxycholate (NaDOC), 1% w/w Triton-X) and samples were collected for radioactivity counting. […]

Compound | uptake in DU145-PSMA+ cells (% added radioactivity) [1] [%AR] | mean difference in uptake compared with [^99mTcO2(DP^MEP-PSMAt)2]^+ ([1]; DU145-PSMA+ cells, 1 h) [%AR] | mean difference in uptake compared with [^99mTcO2(DP^Ph-PSMAt)2]^+ ([1]; DU145-PSMA+ cells, 1 h) [%AR] | blocking of cell uptake by PSMA inhibitor PMPA ([1]; DU145-PSMA+ cells, 1 h) | blocking of cell uptake by PSMA inhibitor PMPA [2]
COc1ccc(P(/C(C(=O)O)=C(/C(=O)NCCOCCOCCOCCOCCC(=O)NCCCC[C@H](NC(=O)N[C@@H](CCC(=O)O)C(=O)O)C(=O)O)P(c2ccc(OC)cc2)c2ccc(OC)cc2)c2ccc(OC)cc2)cc1 [[^99mTcO2(DP^An-PSMAt)2]^+, metal not drawn] | 8.9 ± 2.1 | 6.2 | 6.5 | blocked | blocked
COCCOc1ccc(P(/C(C(=O)O)=C(/C(=O)NCCOCCOCCOCCOCCC(=O)NCCCC[C@H](NC(=O)N[C@@H](CCC(=O)O)C(=O)O)C(=O)O)P(c2ccc(OCCOC)cc2)c2ccc(OCCOC)cc2)c2ccc(OCCOC)cc2)cc1 [[^99mTcO2(DP^MEP-PSMAt)2]^+, metal not drawn] | 2.7 ± 0.8 | – | 12.7 | blocked | blocked
